Laboratory results as given in EPA's ToxValDB 9.5.
“And” between values parts separate entries of the source, which are not always exact repeats. Equal values may be shown once.

How the values were obtained:
[1] = system: Rattus norvegicus; conditions: M/F
[2] = system: Rattus norvegicus; conditions: oral
[3] = system: Mus musculus; conditions: oral
[4] = system: Mus musculus; conditions: reproduction developmental, oral, gavage, M, NMRI, generation: P0
[5] = system: Rattus norvegicus; conditions: oral; for NOEL: subchronic, Fischer 344
[6] = system: Mus musculus; conditions: repeat dose other; oral
[7] = system: Anas platyrhynchos; conditions: oral
[8] = system: Rattus norvegicus; conditions: repeat dose other; oral
[9] = system: Rattus norvegicus
[10] = system: Canidae
[11] = system: Oryctolagus sp.; conditions: for LD50: acute, dermal, occlusive; for NOAEL: duration: 13 days, oral, gavage
[12] = system: Neovison sp.; conditions: repeat dose other; oral; Mink
[13] = system: Rattus norvegicus; conditions: reproduction developmental, oral, gavage
[14] = system: Rattus norvegicus; conditions: chronic; duration: 2 years; oral; diet; Liver: Increased weight
[15] = system: Mus musculus; conditions: acute; oral
[16] = system: Mus musculus; conditions: oral, drinking water, B6C3F1, immunological
[17] = subchronic, oral, lesions in liver, kidney and thyroid
[18] = developmental, gavage, M, neurobehavioral effects
[19] = reproduction developmental, duration: 43 days, oral, gavage, F, Sprague-Dawley
[20] = reproduction developmental, duration: 43 days, oral, gavage, M, Sprague-Dawley
[21] = reproduction developmental, duration: 43 days, oral, gavage, Sprague-Dawley, generation: F1
[22] = subchronic, duration: 90 days, oral, diet, Beagle
[23] = short-term, duration: 28 days, oral, gavage
[24] = subchronic, duration: 90 days, oral, diet, Sprague-Dawley
[25] = reproduction developmental, duration: 10 days, oral, gavage, F, CD
[26] = chronic, duration: 2 years, oral, diet, liver weight increased males
[27] = subchronic, duration: 90 days, oral, reduced body weight and neurotoxicity

With `CC(Cl)C(Cl)Cl` (configuration not stated) [1,1,2-Trichloropropane] the LOAEL [1, 17] was 150 mg/kg-day, the NOEL [1, 17] was 15 mg/kg-day and the NOAEL ([2]; subchronic, duration: 90 days, drinking water, M/F, Sprague-Dawley, Hepatic, Other) was 14 mg/kg-day.

`Brc1cc(Br)c(Oc2cc(Br)c(Br)cc2Br)cc1Br` [2,2',4,4',5,5'-Hexabromodiphenyl ether] showed an LOAEL [3, 18] of 0.9 mg/kg-day, an NOAEL [3, 18] of 0.45 mg/kg-day and an LOEL ([4]; P0: Morris water maze (latency, last trial) + P0: Morris water maze (latency, middle trial) + P0: Morris water maze (latency, reversal trial…) of 0.9 mg/kg-day. The LOEL ([4]; P0: Morris water maze (latency, middle trial)) was 9 mg/kg-day.

Work on `Cc1ccc(N)c(C)c1` [2,4-Dimethylaniline] yielded an LOAEL ([2]; chronic, duration: 6 months, diet, M, Osborne-Mendel) of 18 mg/kg-day.

`Nc1cccc(O)c1` [3-Aminophenol] showed an NOAEL ([5]; short-term, duration: 28 days, gavage, M/F, Sprague-Dawley, Clinical Observation: Tremor Salivation + Body Weight Changes: decrease + Food Consumption: decrease + Water Consumption: increase + …) of 240 mg/kg-day and an NOAEL ([2]; short-term, duration: 18 days, gavage, M/F, Sprague-Dawley, Whole Body Effects) of 80 mg/kg-day.

Compound `O=S(=O)(O)c1ccc(Cl)cc1` [4-Chlorobenzenesulphonic acid] has an NOAEL ([2]; subchronic, duration: 32 days, gavage, M/F, S-D) of 1800 mg/kg-day.

In the case of `c1ccc2c(c1)cc1ccc3cccc4ccc2c1c34` [Benzo[a]pyrene], the LOAEL [6] is reported as 10 mg/kg-day, the NOAEL [6] is reported as 1 mg/kg-day and the LOAEL ([1]; developmental, duration: 9 days, inhalation, reduced embryo/fetal survival) is reported as 0.025 mg/m3.

For `[Cl][Cd][Cl]` [Cadmium chloride], the LOAEL [7] was 20 mg/kg-day, the NOAEL [7] was 1.45 mg/kg-day and the LOAEL [8] was 10 mg/kg-day. It also gave an NOAEL [8] of 1 mg/kg-day.

Work on `BrCBr` [Dibromomethane] yielded an LOAEL [9, 19] of 500 mg/kg-day, an NOAEL [9, 19] of 150 mg/kg-day and an LOAEL [9, 20] of 150 mg/kg-day. It also gave an NOAEL [9, 20] of 50 mg/kg-day, an LOAEL [9, 21] of 500 mg/kg-day and an NOAEL [9, 21] of 150 mg/kg-day. For the same compound, the NOAEL ([2]; short-term, duration: 28 days, drinking water, M/F, Sprague-Dawley, Hematologic) was 8.6 mg/kg-day.

Work on `O=S(=O)(c1ccccc1)c1ccccc1` [Diphenylsulfone] yielded an NOAEL ([2]; subchronic, duration: 13 weeks, diet, M) of 8 mg/kg-day.

In the case of `CCCCCCCCCCCCCCCCc1c(Oc2ccccc2S(=O)(=O)O)cccc1S(=O)(=O)O.[Na+].[Na+]` [Disodium hexadecyl(sulfophenoxy)benzenesulfonate], the NOAEL [10, 22] is reported as 200 mg/kg-day, the LD50 ([9]; acute, dermal, occlusive, Sprague-Dawley) is reported as > 2000 mg/kg and the LD50 ([9]; acute, dermal, occlusive, Wistar) is reported as > 2000 mg/kg. The LD50 ([9]; acute, oral, gavage) was > 3980 mg/kg, the LD50 ([9]; acute, oral, gavage, Fischer 344) was 1500 mg/kg and > 2000 mg/kg and the LD50 ([9]; acute, oral, gavage, Sprague-Dawley) was 7740 mg/kg and > 5000 mg/kg. For the same compound, the LD50 ([9]; acute, oral, gavage, Wistar) was > 5000 mg/kg, the LOAEL [9, 23] was 1000 mg/kg-day and the NOAEL [9, 23] was 250 mg/kg-day. For the same compound, the LOAEL [9, 24] was 200 mg/kg-day and the NOAEL [9, 24] was 100 mg/kg-day.

For `O=C(O)CCCC(=O)O` [Glutaric acid], the “LOAEL (% diet)” value [10, 22] was 3, the “NOAEL (% diet)” value [10, 22] was ≥ 2 and the LD50 ([11]; New Zealand) was > 10000 mg/kg. For the same compound, the NOAEL ([11]; developmental, New Zealand) was > 500 mg/kg-day, the NOAEL ([11]; reproduction developmental, F, New Zealand) was > 500 mg/kg-day and the LD50 ([9]; acute, oral, Sprague-Dawley) was 2750 mg/kg. For the same compound, the NOAEL ([9]; developmental, duration: 10 days, oral, gavage, CD) was 1300 mg/kg-day, the LOAEL [9, 25] was 400 mg/kg-day and the NOAEL [9, 25] was 125 mg/kg-day. For the same compound, the NOAEL ([9]; reproduction developmental, duration: 10 days, oral, gavage, F, Sprague-Dawley) was ≥ 1000 mg/kg-day, the “LOAEL (% diet)” value [9, 24] was 2 and the “NOAEL (% diet)” value [9, 24] was ≥ 1.

Compound `ClC1=C(Cl)C2(Cl)C3C(Cl)C=CC3C1(Cl)C2(Cl)Cl` (configuration not stated) [Heptachlor] has an LOAEL [12] of 1 mg/kg-day, an NOAEL [12] of 0.1 mg/kg-day and an LEL [1, 26] of 0.25 mg/kg-day. The NOEL [1, 26] was 0.15 mg/kg-day, the LOAEL ([13]; duration: 14 days, F, CFT-Wistar, reproductive) was 1.8 mg/kg-day and the LOAEL ([13]; duration: 364 days, M/F, Sprague-Dawley, immunological, neurological) was 0.03 mg/kg-day. The NOEL [14] was 0.15 mg/kg-day.

`O=C(O)CCCCC(=O)O` [Hexanedioic acid] was tested, and the LD50 [15] was 1900 mg/kg, the LD50 ([11]; New Zealand) was > 7940 mg/kg and the NOAEL ([11]; developmental, Dutch-belted) was > 250 mg/kg-day. For the same compound, the LC50 ([9]; acute, Inhalation, Sprague-Dawley) was > 7.7 µg/mL, the LD50 ([9]; acute, oral, Sprague-Dawley) was 5050 mg/kg and the NOAEL ([9]; developmental, duration: 10 days, oral, gavage, Wistar) was > 288 mg/kg-day. It also gave an NOAEL ([2]; chronic, duration: 2 years, diet, M/F, albino, Whole Body Effects) of 470 mg/kg-day.

`[CH3][Hg]/[N]=C(\N)NC#N` [Methyl mercury dicyandiamide] showed an LOAEL [7] of 0.064 mg/kg-day and an NOAEL [7] of 0.0064 mg/kg-day.

`CNc1ccccc1` [N-Methylaniline] showed an NOAEL ([2]; short-term, duration: 28 days, gavage, M/F, CD, Hematologic, Immune) of 5 mg/kg-day.

Compound `c1ccc(Nc2cccc3ccccc23)cc1` [N-Phenyl-1-naphthylamine] has an NOAEL ([10]; chronic, duration: 36 months, oral, diet, Dog Other) of 290 mg/kg-day.

Work on `N#CCC#N` [Propanedinitrile] yielded an NOAEL ([2]; subchronic, duration: 90 days, gavage, M/F, Crl:CD(SD) BR, hepatic) of 0.4 mg/kg-day.

`O=[Se]([O-])[O-].[Na+].[Na+]` [Sodium selenite] was tested, and the LOAEL [7] was 1 mg/kg-day, the NOAEL [7] was 0.5 mg/kg-day and the NOEL ([5]; drinking water, F, Deaths + Body Weight Changes: decrease + Water Consumption: decrease + Hematology: Hct increase, Hgb increase, RBC increase + Blood …) was 0.17 mg/kg-day. It also gave an NOEL ([5]; drinking water, M/F, Deaths + Body Weight Changes: decrease + Water Consumption: decrease + Hematology: Hct increase, Hgb increase, RBC increase + Blood …) of 0.304 mg/kg-day.

With `[Mo].[O-2].[O-2].[O-2].[O-2]` [Tetraoxomolybdate(2-)] the LOAEL [6] was 2.6 mg/kg-day and the NOAEL [6] was 0.26 mg/kg-day.

With `ClC=C(Cl)Cl` [Trichloroethylene] the LOAEL [6] was 7 mg/kg-day, the NOAEL [6] was 0.7 mg/kg-day and the NOEL ([5]; duration: 13 weeks, gavage, M/F, Histopathology: Lung-Pulmonary vasculitis Kidney-Cytomegaly/Karyomegaly, Renal tubular epithelial cell in the inner cortex) was 1000 mg/kg-day. The LOAEL ([3]; chronic, duration: 30 weeks, drinking water, F, Decreased thymus weight in female B6C3F1 mice) was 0.35 mg/kg-day, the LOAEL ([3]; developmental, drinking water, M/F, reduced plaque-forming cell (pfc) response, increased delayed-type hypersensitivity in b6c3f1 mice) was 0.37 mg/kg-day and the LOAEL ([16]; chronic, duration: 1 years, M/F) was 0.37 mg/kg-day. For the same compound, the LOAEL ([16]; chronic, duration: 30 weeks, F) was 0.35 mg/kg-day and the LOAEL ([16]; developmental, duration: 364 days, M/F) was 0.37 mg/kg-day.

For `FC(F)F` [Trifluoromethane], the LOAEL ([10]; repeat dose other, inhalation, Beagle) was > 14300 mg/m3.

Compound `CCCCCC` [n-Hexane] has an LOAEL ([2]; subchronic, duration: 8 weeks, gavage, M, Wistar, Nervous) of 785 mg/kg-day.

In the case of `Cc1ccccc1O` [o-Cresol], the NOAEL [12] is reported as 219 mg/kg-day, the LOAEL [1, 27] is reported as 150 mg/kg-day and the NOAEL [1, 27] is reported as 50 mg/kg-day.
